Results from US7825151B2, “Hexahydro-cyclooctyl pyrazole cannabinoid modulators” (priority 2005, dated 2010).

Key:
CB2 receptor = biological target: T1, CB2 receptor (Homo sapiens, UniProt P34972); assay: Functional cell-based CRE β-gal assay, CB2 (adenylate cyclase activity)
T1 construct: expressed in transfected cells; host or cells: SK-N-MC cells, stably transfected with pcDNA3 CB-2 (human)
From the text: (§1) The CB1 and CB2 receptors are G-protein coupled receptors (GPCR), which influence cell function via the Gi-protein. These receptors modulate the activity of intracellular adenylate cyclase, which in turn produces the intracellular signal messenger cyclic-AMP (cAMP).
(§2) At baseline, or during non-ligand bound conditions, these receptors are constitutively active and tonically suppress adenylate cyclase activity. The binding of an agonist causes further receptor activation and produces additional suppression of adenylate cyclase activity. The binding of an inverse agonist inhibits the constitutive activity of the receptors and results in an increase in adenylate cyclase activity.
(§3) By monitoring intracellular adenylate cyclase activity, the ability of compounds to act as agonists or inverse agonists can be determined.
(§4) Test compounds were evaluated in SK-N-MC cells which, using standard transfection procedures, were stably transfected with human cDNA for pcDNA3-CRE β-gal and pcDNA3 CB1 receptor (human) or pcDNA3 CB2 receptor (human). By expressing CRE β-gal, the cells produced β-galactosidase in response to CRE promoter activation by cAMP. Cells expressing CRE β-gal and either the human CB1 or CB2 receptor will produce less β-galactosidase when treated with a CB1/CB2 agonist and will produce more β-galactosidase when treated with a CB1/CB2 inverse agonist.
(§5) The cells were grown in 96-well plates under standard cell culture conditions at 37° C. in a 5% CO2 atmosphere. After 3 days, the media was removed and a test compound in media (wherein the media was supplemented with 2 mM L-glutamine, […] sodium pyruvate, 0.1% low fatty acid FBS (fetal bovine serum) and antibiotics) was added to the cell. The plates were incubated for 30 minutes at 37° C. and the plate cells were then treated with forskolin over a 4-6 hour period, then washed and lysed. The β-galactosidase activity was quantitated using commercially available kit reagents (Promega Corp. Madison, Wis.) and a Vmax Plate Reader (Molecular Devices, Inc).
For cells expressing CRE β-gal and the CB2 receptor, CB2 agonists reduced β-galactosidase activity in a dose-dependent manner and CB2 inverse agonists increase β-galactosidase activity in a dose-dependent manner.
(§6) The change in β-galactosidase activity was determined by setting a vehicle treated cell's activity value at 100% and expressing the β-galactosidase activity measured in a corresponding compound treated cell as a percent of the vehicle treated cell activity.
The EC50 value for functional activity for compounds tested was calculated by linear regression and was obtained from studies in which varying compound concentrations were used.
The value of 29% for Compound 5 represents change in functional activity and was obtained from a study in which one compound concentration was used.

human CB1 receptor = biological target: T2, human CB1 receptor (Homo sapiens, UniProt P21554); assay: Functional cell-based CRE β-gal assay, CB1 (adenylate cyclase activity); conditions: single test concentration 1 μM (footnote 2)
T2 construct: expressed in transfected cells; host or cells: SK-N-MC cells, stably transfected with pcDNA3 CB-1 (human)
From the text: as §1, §2, §3, §4, §5, §6
The EC50 value for functional activity for compounds tested was calculated by linear regression and was obtained from studies in which varying compound concentrations were used. Data provided for certain compounds is represented by percent change (%) in functional activity at a single test concentration: ^(1)10 μM and ^(2)1 μM.

[1] = test system: oil of mustard induced colitis; assay: Oil of mustard induced colitis model; assay type: in vivo, Male CD-1 mice; conditions: 5 mg/kg oral; for % Inh (Macro), % inhibition of colitis: macroscopic score; for % Inh (Micro), % inhibition of colitis: microscopic score
From the text: In the distal colon, the oil of mustard colitis model is characterized by a discontinuous pattern of mucosal epithelial damage, submucosal edema, infiltration of inflammatory cells (including macrophages, neutrophils and lymphocytes) into the mucosa and submucosa, increased wet weight of the colon, shrinkage of the colon length, diarrhea and apparent inflammation (see, Kimball E. S., Palmer J. M., D'Andrea M. R., Hornby P. J. and Wade P. R., Acute colitis induction by oil of mustard results in later development of an IBS-like accelerated upper GI transit in mice, Am. J. Physiol. Gastrointest. Liver Physiol., 2005, 288: G 1266-1273).
Male CD-1 mice (Charles River Laboratories, Kingston, N.C.) (9-11 weeks old) and fresh oil of mustard (OM) (allyl isothiocyanate, 98% purity, Sigma-Aldrich St. Louis, Mo.) were used.
The mice (9 per treatment group) were briefly anesthetized with ketamine/xylasine (Sigma, St. Louis, Mo.) and a solution of 0.5% OM in 30% ethanol (50 μL) was administered intracolonically (to a depth of 4 cm) via syringe (equipped with a ball-tipped 22 G needle).
A test compound was orally administered one day prior to colitis induction for assessing a prophylactic regimen or one day post-induction for assessing a therapeutic regimen. A test compound was orally administered daily thereafter. Two days after OM administration, the last test compound dose was administered.
Three days after OM administration, the animals were sacrificed. The colons were resected, examined for signs of inflammation, weighed after removing fecal contents and the length from the aboral end of the cecum to the anus was measured. The fecal contents were examined for signs of diarrhea. The distal colon between the 1st and the 4th centimeter was removed and placed in 10% neutral buffered formalin for histological analysis.
The macroscopic observations of colon inflammation (a measure of colon damage), colon weight and length and stool consistency and appearance were assigned a score and used to evaluate colitis severity.
The four observation scores for each colon were combined, whereby a combined score of 0 represents a normal colon and a combined score of 15 represents a maximally affected colon. Statistical analyses were performed in Graphpad Prism 4.0 using ANOVA.
Histological analyses of tissues consisted of staining paraffin-embedded tissue sections with hematoxylin-eosin dye. The tissues were examined using light microscopy by an investigator who was blinded to the sample groups. […]
The Macroscopic Score and Microscopic Score results for each treatment group in the prophylactic and therapeutic regimens were each combined into a mean score and expressed as % inhibition of colitis (% Inh). […]

T2 sequence (P21554 whole entry): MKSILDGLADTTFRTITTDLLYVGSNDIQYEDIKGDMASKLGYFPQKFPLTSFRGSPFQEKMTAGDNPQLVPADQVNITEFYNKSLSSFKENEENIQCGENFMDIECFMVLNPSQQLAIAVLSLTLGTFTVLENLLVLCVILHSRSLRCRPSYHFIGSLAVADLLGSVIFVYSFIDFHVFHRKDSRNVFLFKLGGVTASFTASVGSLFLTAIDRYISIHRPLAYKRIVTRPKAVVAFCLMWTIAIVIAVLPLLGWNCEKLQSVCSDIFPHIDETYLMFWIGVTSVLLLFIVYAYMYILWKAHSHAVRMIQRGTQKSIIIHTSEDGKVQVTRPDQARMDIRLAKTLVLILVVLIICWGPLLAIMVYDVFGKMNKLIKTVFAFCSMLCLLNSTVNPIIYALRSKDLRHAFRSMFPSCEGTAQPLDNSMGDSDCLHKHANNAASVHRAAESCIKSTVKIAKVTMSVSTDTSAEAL
T1 sequence (P34972 whole entry): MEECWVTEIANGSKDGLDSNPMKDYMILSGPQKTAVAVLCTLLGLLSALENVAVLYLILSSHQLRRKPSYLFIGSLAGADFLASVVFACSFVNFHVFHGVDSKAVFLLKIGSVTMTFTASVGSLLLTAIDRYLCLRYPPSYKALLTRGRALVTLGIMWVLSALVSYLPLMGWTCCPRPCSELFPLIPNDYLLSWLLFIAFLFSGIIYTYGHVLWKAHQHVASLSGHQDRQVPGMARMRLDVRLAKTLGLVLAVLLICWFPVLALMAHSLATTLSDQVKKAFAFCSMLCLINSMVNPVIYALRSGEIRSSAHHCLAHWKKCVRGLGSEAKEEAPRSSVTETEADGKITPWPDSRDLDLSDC

## O=C(NCC12CC3CC(CC(C3)C1)C2)c1nn(C2CCCCC2)c2c1CCCCCC2 [Cpd 2, 1-cyclohexyl-4,5,6,7,8,9-hexahydro-1H-cyclooctapyrazole-3-carboxylic acid (adamantan-1-ylmethyl)-amide]
CB2 receptor
  EC50: 6.6 nM
Human CB1 receptor
  CB1 receptor percent change in functional activity: ^(2)−71%
[1]; prophylactic regimen
  % Inh (Macro), % inhibition of colitis: 42.3 ± 12.6%
  % Inh (Micro), % inhibition of colitis: 74.4 ± 3.8%
[1]; therapeutic regimen
  % Inh (Macro), % inhibition of colitis: 38.7 ± 9.1%
  % Inh (Micro), % inhibition of colitis: 66.0 ± 9.8%
